From patent US7745442B2, “Methods of reducing risk of infection from pathogens” (priority 2003, dated 2010)

Biological target: T1, airway epithelial sodium currents (sodium channel) in canine bronchial epithelia (Canis lupus familiaris, UniProt A0A8I3MKE6+A0A8I3Q679+Q95165)
T1 construct: endogenous in cells; host or cells: primary canine bronchial epithelial cells from freshly excised airways, cultured at air-liquid interface on Snapwell inserts
Assay: In vitro sodium channel blocking activity (short circuit current, Ussing chambers) in canine bronchial epithelia
Type: cell-based
Details: potency in canine bronchial epithelia; for Fold Amiloride*: relative to amiloride (Formula III compounds), value ± spread
Procedure: One assay used to assess mechanism of action and/or potency of the compounds of (1), (II), and (HI) involves the determination of lumenal drug inhibition of airway epithelial sodium currents measured under short circuit current (ISC) using airway epithelial monolayers mounted in Ussing chambers. Cells obtained from freshly excised human, dog, sheep or rodent airways are seeded onto porous 0.4 micron Snapwell™ Inserts (CoStar), cultured at air-liquid interface (ALI) conditions in hormonally defined media, and assayed for sodium transport activity (ISC) while bathed in Krebs Bicarbonate Ringer (KBR) in Using chambers. All test drug additions are to the lumenal bath with half-log dose addition protocols (from 1×10^−11 M to 3×10^−5 M), and the cumulative change in ISC (inhibition) recorded. All drugs are prepared in dimethyl sulfoxide as stock solutions at a concentration of 1×10^−2 M and stored at −20° C. Eight preparations are typically run in parallel; two preparations per run incorporate amiloride and/or benzamil as positive controls. After the maximal concentration (5×10^−5 M) is administered, the lumenal bath is exchanged three times with fresh drug-free KBR solution, and the resultant ISC measured after each wash for approximately 5 minutes in duration. Reversibility is defined as the percent return to the baseline value for sodium current after the third wash. All data from the voltage clamps are collected via a computer interface and analyzed off-line.
Dose-effect relationships for all compounds are considered and analyzed by the Prism 3.0 program. IC50 values, maximal effective concentrations, and reversibility are calculated and compared to amiloride and benzamil as positive controls.
Amiloride and/or a compound 33 was also tested in this assay as a positive control. The results for the compounds of the present invention are reported as fold-enhancement values relative to amiloride.
Amiloride was also tested in this assay as a positive control. The results for the compounds of the present invention are reported as fold-enhancement values relative to amiloride.

T1 sequence (A0A8I3Q679 entry or part of it): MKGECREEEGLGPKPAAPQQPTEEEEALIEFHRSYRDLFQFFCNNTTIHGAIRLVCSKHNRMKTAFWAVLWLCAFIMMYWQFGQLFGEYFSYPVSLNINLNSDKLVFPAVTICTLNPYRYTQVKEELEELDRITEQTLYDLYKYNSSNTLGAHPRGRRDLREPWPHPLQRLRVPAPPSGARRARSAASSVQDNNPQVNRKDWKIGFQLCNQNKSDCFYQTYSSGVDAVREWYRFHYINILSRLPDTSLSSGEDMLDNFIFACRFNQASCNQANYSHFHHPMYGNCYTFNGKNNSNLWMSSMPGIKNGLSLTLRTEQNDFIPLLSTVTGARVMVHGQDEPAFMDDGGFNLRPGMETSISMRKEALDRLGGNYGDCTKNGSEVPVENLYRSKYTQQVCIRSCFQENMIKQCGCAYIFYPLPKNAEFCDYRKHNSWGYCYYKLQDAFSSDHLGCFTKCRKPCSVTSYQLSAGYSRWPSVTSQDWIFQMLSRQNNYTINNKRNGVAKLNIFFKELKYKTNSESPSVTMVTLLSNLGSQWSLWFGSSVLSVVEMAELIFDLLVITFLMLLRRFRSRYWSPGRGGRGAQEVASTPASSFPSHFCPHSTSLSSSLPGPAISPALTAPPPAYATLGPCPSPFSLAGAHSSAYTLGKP
T1 sequence (A0A8I3MKE6 entry or part of it): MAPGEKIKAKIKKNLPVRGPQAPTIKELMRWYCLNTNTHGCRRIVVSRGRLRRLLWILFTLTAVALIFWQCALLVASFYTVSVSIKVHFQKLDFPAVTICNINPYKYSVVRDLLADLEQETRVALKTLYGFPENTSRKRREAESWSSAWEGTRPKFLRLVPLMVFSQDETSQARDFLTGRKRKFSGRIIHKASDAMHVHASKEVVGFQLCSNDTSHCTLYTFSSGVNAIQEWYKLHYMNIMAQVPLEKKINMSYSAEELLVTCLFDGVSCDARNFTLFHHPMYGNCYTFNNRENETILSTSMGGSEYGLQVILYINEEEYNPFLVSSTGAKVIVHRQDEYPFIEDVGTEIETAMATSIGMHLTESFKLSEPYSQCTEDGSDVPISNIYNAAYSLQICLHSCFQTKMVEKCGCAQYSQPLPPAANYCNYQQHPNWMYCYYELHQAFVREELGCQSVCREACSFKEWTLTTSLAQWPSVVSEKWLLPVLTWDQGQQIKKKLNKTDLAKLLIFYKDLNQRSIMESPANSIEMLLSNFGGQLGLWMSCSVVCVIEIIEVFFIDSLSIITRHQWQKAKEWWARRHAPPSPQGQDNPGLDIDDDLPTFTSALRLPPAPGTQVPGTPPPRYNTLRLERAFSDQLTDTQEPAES
T1 sequence (Q95165 whole entry): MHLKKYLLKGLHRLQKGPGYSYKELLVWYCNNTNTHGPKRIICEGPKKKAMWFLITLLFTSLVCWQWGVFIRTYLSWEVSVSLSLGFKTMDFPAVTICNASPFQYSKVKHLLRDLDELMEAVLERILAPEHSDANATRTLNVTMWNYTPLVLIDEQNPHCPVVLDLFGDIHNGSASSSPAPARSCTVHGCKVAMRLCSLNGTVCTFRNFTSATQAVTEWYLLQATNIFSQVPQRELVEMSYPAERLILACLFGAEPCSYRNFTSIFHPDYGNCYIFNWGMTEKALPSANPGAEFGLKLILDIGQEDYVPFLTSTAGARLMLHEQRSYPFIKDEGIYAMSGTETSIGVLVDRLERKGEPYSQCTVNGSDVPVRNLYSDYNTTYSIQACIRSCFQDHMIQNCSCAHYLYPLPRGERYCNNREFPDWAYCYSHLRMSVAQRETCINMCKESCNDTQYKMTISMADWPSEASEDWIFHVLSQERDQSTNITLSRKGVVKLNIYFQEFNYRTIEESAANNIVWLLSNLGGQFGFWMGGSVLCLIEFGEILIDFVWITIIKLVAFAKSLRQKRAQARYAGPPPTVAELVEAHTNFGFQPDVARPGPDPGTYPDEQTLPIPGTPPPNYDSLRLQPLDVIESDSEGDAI

`Cl.N=C(NCCCCc1ccc(O)cc1)NC(=O)c1nc(Cl)c(N)nc1N` [compound V, 4-(4-hydroxyphenyl)butylamidino-3,5-diamino-6-chloropyrazinecarboxamide hydrochloride] was tested. Which “Fold Enhancement Over Amiloride” value (relative to amiloride (Formula I compounds, Tables 1-4)) did it give?
The value was 50.3 fold.

Which “Fold Amiloride*” value (number in brackets not explained (presumably n), listed as drawing 52: O CH2 CHOH CH2 OH, hydrochloride) does the source give for `Cl.N=C(NCCCCc1ccc(OCC(O)CO)cc1)NC(=O)c1nc(Cl)c(N)nc1N` (centres unmarked) [compound 33, 4-[4-(2,3-Dihydroxypropyloxyl)phenyl]butylamidino-3,5-diamino-6-chloropyrazinecarboxamide hydrochloride] here?
The value was 51.95 (50) fold.

What about the “Fold Amiloride*” value (number in brackets not explained (presumably n), listed as drawing 53: O CH2 CHOH CH2 OH, hydrochloride) of the same molecule?
Its value is 51.95 (79) fold.

What about the “Fold Amiloride*” value (number in brackets not explained, Position=Para, hydrochloride) of the same molecule?
The value was 51.55 (79) fold.

For `Cl.Cl.N=C(N)NCCOc1ccc(CCCCNC(=N)NC(=O)c2nc(Cl)c(N)nc2N)cc1` [compound 9518, N-(3,5-diamino-6-chloropyrazine-2-carbonyl)-N′-{4-[4-(2-guanidinoethoxy)-phenyl]butyl}guanidine dihydrochloride], which “Fold Amiloride*” value (number in brackets not explained) is on record?
Its value is 120.6 ± 60.8 (11) fold.
